≈ marks a conversion by molar mass, not a printed value.
Columns and labels:
Vero [1] = experiment: Compound concentration to reduce virus cytopathic effect by 50% tested against herpes simplex […] using Vero cell line; type: functional, cell-based; conditions: Chlorocebus sabaeus
Vero [2] = experiment: Minimum cytotoxic compound concentration to induce microscopically detectable alteration of cell morphology, using Vero cell line; type: functional, Chlorocebus sabaeus
HEL = experiment: Compound concentration to reduce virus plague formation by 50% tested against human cytomegalovirus laboratory strains Davis using HEL cell line; type: functional, cell-based
Vero [3] = experiment: Compound concentration to reduce virus cytopathic effect by 50% tested against herpes simplex virus-1(KOS) using Vero cell line; type: functional, cell-based; conditions: Chlorocebus sabaeus
MRC5 [4] = experiment: Cytotoxic compound concentration to reduce neutral red uptake by 50% using MRC-5 cell line; type: functional, Homo sapiens
MRC5 [5] = experiment: Compound concentration to reduce virus plague formation by 50% tested against human cytomegalovirus laboratory strains P8 using MRC-5 cell line; type: functional, cell-based
MRC5 [6] = experiment: Compound concentration to reduce virus plague formation by 50% tested against human cytomegalovirus laboratory strains Ad169 using MRC-5 cell line; type: functional, cell-based

Compound	IC50 (Vero [1]) [µg/mL]	minimum cytotoxic concentration (MCC) (Vero [2]) [µg/mL]	IC50 (HEL) [µg/mL]	IC50 (Vero [3]) [µg/mL]	CC50% (MRC5 [4]) [µg/mL]	IC50 (MRC5 [5]) [µg/mL]	IC50 (MRC5 [6]) [µg/mL]
O=C1NCc2ccccc2OCCC/C=C/c2cncc3ccc1nc23	0.004 (≈ 0.0116 µM)	25	0.003 (≈ 0.00869 µM)	0.098 (≈ 0.284 µM)	0.2 (≈ 0.579 µM)	–	–
O=C1NCc2ccccc2OCC/C=C/c2cncc3ccc1nc23	0.009 (≈ 0.0272 µM)	6	< 0.0015	0.391 (≈ 1.18 µM)	1.8 (≈ 5.43 µM)	0.0052 (≈ 0.0157 µM)	0.0006 (≈ 0.00181 µM)
Cc1cncc2ccc(C(=O)NCc3ccccc3OC(C)C)nc12	–	–	–	–	2.4 (≈ 7.16 µM)	0.13 (≈ 0.388 µM)	0.09 (≈ 0.268 µM)
Nc1ccn(C[C@@H](CO)OCP(=O)(O)O)c(=O)n1.O.O [CIDOFOVIR]	1.28	>100	–	3.94	–	–	–
Nc1nc2c(ncn2COC(CO)CO)c(=O)[nH]1 [GANCICLOVIR]	1.22 (≈ 4.78 µM)	>100	2.7 (≈ 10.6 µM)	1.27 (≈ 4.99 µM)	>1000	1.2 (≈ 4.7 µM)	2.2 (≈ 8.62 µM)
